# Data: patent publication US8952005B2, “Substituted 1,3-benzothiazol-2(3H)-ones and [1,3]thiazolo[5,4-B]pyridin-2(1H)-ones as positive allosteric modulators of mGluR2” (Merck Sharp & Dohme Corp., priority 2010, dated 2015)
# Target: T1, recombinant human mGluR2 (Homo sapiens, UniProt Q14416)
# T1 construct: expressed in transfected cells
# Assay: FLIPR Ca2+ mobilization assay, potentiation of glutamate response at mGluR2
# Type: cell-based
# Conditions: potentiation after addition of EC20 concentration of glutamate (900 nM); CHO dhfr- cells expressing human mGluR2 and Gα16
# Method: Inhibition constants are determined as follows. The compounds of the present invention may be tested in a fluorescence laser imaging plate reader (FLIPR) based assay. This assay is a common functional assay to monitor Ca^2+ mobilization in whole cells expressing recombinant receptor coupled with a promiscuous G-protein. CHO dhfr− cells stably expressing recombinant human mGluR2 and Gα16 loaded with Fluo-4 AM (Invitrogen, Carlsbad Calif.) are treated with dose responses of compounds and the Ca^2+ response is monitored on a FLIPR384 (Molecular Devices, Sunnydale Calif.) for agonist activity. The potentiation response is monitored after a subsequent addition of an EC20 concentration of glutamate (900 nM). The maximum calcium response at each concentration of compound for agonist or potentiation are plotted as dose responses and the curves are fitted with a four parameters logistic equation giving EC50 and Hill coefficient using the iterative non linear curve fitting software program.
# T1 sequence (Q14416 19-872): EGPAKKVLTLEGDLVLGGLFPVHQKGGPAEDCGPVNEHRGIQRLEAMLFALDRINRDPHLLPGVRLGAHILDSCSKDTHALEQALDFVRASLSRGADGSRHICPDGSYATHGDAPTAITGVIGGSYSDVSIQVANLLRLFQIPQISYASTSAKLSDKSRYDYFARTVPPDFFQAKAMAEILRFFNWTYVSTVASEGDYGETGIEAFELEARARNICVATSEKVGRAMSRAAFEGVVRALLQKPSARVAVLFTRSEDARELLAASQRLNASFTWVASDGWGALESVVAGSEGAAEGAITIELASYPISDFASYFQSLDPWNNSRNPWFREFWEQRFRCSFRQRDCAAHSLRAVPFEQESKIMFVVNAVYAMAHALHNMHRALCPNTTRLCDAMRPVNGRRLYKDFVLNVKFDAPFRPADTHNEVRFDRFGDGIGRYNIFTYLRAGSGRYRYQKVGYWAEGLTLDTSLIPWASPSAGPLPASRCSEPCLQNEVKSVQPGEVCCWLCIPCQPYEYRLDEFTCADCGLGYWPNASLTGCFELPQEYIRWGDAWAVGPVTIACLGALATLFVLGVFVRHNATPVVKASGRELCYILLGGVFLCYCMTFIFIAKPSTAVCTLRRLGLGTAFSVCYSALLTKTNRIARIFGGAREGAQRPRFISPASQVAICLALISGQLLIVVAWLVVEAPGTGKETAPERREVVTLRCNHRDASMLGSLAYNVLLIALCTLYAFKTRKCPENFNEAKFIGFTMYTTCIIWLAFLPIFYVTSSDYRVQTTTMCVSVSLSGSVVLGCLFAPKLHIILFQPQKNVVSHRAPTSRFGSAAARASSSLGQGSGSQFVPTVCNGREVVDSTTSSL
row,EC50 [nM],Compound
1,153,"Cc1ccc(C(C)(C)O)cc1-c1ccc2c(n1)sc(=O)n2CC1CC1(F)F (stereo not shown) [Example 2-3, 1-{[2,2-difluorocyclopropyl]methyl}-5-[5-(1-hydroxy-1-methylethyl)-2-methylphenyl][1,3]thiazolo[5,4-b]pyridin-2(1H)-one]"
2,34,"CC(C)(C)Cn1c(=O)sc2nc(-c3ccccc3C#N)ccc21 [Example 3-2, 2-[1-(2,2-dimethylpropyl)-2-oxo-1,2-dihydro[1,3]thiazolo[5,4-b]pyridin-5-yl]benzonitrile]"
3,17,"N#Cc1ccccc1-c1ccc2c(c1)sc(=O)n2CC1CC1(F)F (stereo not shown) [Example 5-2, 2-(3-{[2,2-difluorocyclopropyl]methyl}-2-oxo-2,3-dihydro-1,3-benzothiazol-6-yl)benzonitrile]"
4,65,"O=c1sc2cc(-c3cccc(N4CCS(=O)(=O)CC4)c3)ccc2n1CC1CC1 [Example 6-16, 3-(cyclopropylmethyl)-6-[3-(1,1-dioxidothiomorpholin-4-yl)phenyl]-1,3-benzothiazol-2(3H)-one]"
5,248,"N#Cc1ccccc1-c1ccc2c(c1)sc(=O)n2Cc1ccc(Cl)cc1F [Example 9-15, 2-[3-(4-chloro-2-fluorobenzyl)-2-oxo-2,3-dihydro-1,3-benzothiazol-6-yl]benzonitrile]"
6,15,"N#Cc1cc(Oc2ccc(C#N)c(-c3ccc4c(n3)sc(=O)n4CC3CC3(F)F)c2)ccn1 (stereo not shown) [Example 16-3, 4-(4-cyano-3-{1-[(2,2-difluorocyclopropyl)methyl]-2-oxo-1,2-dihydro[1,3]thiazolo[5,4-b]pyridin-5-yl}phenoxy)pyridine-2-carbonitrile]"
7,306,"N#Cc1cccnc1Oc1ccc2c(c1)sc(=O)n2CC1CC1(F)F (stereo not shown) [Example 18-3, 2-({3-[(2,2-difluorocyclopropyl)methyl]-2-oxo-2,3-dihydro-1,3-benzothiazol-6-yl}oxy)nicotinonitrile]"
